Consider eleven compounds from US7759486B2, “2,4,5-Trisubstituted pyrimidine compounds” (GlaxoSmithKline LLC, priority 2000, dated 2010).

In one data set the target is T1, CSBP/p38 (Homo sapiens, UniProt Q16539).
T1 construct: made in house; host or cells: yeast
In words: CSBP/p38 Kinase Assay (32P transfer from ATP to EGFR-derived T669 peptide). It is filed as biochemical. The following applies: yeast-expressed, activated and purified p38, 0.17 mM ATP, 25 min at 37° C., read-out: IC50, positive inhibitory activity in this binding assay. The method, then: Assay: Test compound concentrations were prepared at 10× concentrations and LPS prepared at […] (final conc. of 50 ng/ml LPS) and added in 50 uL volumes to 1.5 mL eppendorf tubes. Heparinized human whole blood was obtained from healthy volunteers and was dispensed into eppendorf tubes containing compounds and LPS in 0.4 mL volumes and the tubes incubated at 37 C. Following a 4 hour incubation, the tubes were centrifuged at 5000 rpm for 5 minutes in a TOMY microfuge, plasma was withdrawn and frozen at −80 C. Cytokine measurement: IL-1 and/or TNF were quantified using a standardized ELISA technology. An in-house ELISA kit was used to detect human IL-1 and TNF. Concentrations of IL-1 or TNF were determined from standard curves of the appropriate cytokine and IC50 values for test compound (concentration that inhibited 50% of LPS-stimulated cytokine production) were calculated by linear regression analysis. CSBP/p38 Kinase Assay:
This assay measures the CSBP/p38-catalyzed transfer of ^32P from […] to threonine residue in an epidermal growth factor receptor (EGFR)-derived peptide (T669) with the following sequence: […] (SEQ ID No. 1) (residues 661-681). […]
Reactions were carried in round bottom 96 well plate (from Corning) in a 30 ml volume. […] Filters were washed with 75 mM phosphoric acids, and incorporated 32P was quantified using beta scintillation counter. […]

T1 sequence (Q16539 whole entry): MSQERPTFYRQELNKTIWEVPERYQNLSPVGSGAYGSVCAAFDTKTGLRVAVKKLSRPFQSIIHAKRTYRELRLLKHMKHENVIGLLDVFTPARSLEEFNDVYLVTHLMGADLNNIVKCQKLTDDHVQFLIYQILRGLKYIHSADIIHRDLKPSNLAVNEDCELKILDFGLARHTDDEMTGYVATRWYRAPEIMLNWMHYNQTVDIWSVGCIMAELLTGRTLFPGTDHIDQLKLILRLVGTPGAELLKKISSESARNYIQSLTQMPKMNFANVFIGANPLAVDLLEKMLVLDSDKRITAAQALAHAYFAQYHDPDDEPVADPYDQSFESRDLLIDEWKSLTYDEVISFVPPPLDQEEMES

Broadly, the IC50 is the concentration that inhibits the measured activity by half. Regarding `CSc1nc(Oc2ccccc2)c2ccc(=O)n(-c3ccccc3Cl)c2n1` [Example 111, 8-(2-Chloro-phenyl)-2-methylsulfanyl-4-phenoxy-8H-pyrido[2,3-d]pyrimidin-7-one], at CSBP/p38, the IC50 was < 10 µM.

In general, melting point refers to the temperature of the solid-liquid transition. Take `Cc1cc(F)ccc1-c1nc(NCCNC(=O)Nc2cccc(F)c2)nc2c1ccc(=O)n2-c1c(F)cccc1F` [Example 161, 1-[2-[8-(2,6-Difluorophenyl)-4-(4-fluoro-2-methylphenyl)-7-oxo-7,8-dihydro-pyrido[2,3-d]pyrimidin-2-ylamino]ethyl]-3-[3-fluorophenyl]urea]: the melting point lay within 131 to 144 °C.

Consider `Cc1cc(F)ccc1-c1nc(NCCNC(=O)c2ccccc2)nc2c1ccc(=O)n2-c1c(F)cccc1F` [Example 163, 8-(2,6-Difluorophenyl)-4-(4-fluoro-2-methylphenyl)-2-[N-(2-aminoethyl)-3-benzamido]-8H-pyrido[2,3-d]pyrimidin-7-one], for which the melting point was in the range of 246 to 248 °C.

Regarding `CCC(=O)NCCNc1nc(-c2ccc(F)cc2C)c2ccc(=O)n(-c3c(F)cccc3F)c2n1` [Example 165], the melting point lay within 214 to 216 °C.

In turn, `Cc1cc(F)ccc1-c1nc(NCCNC(=O)C(C)(C)C)nc2c1ccc(=O)n2-c1c(F)cccc1F` [Example 166] came in with a melting point of 111 to 133 °C.

In turn, `Cc1cc(F)ccc1-c1nc(NCCNC(=O)OC(C)(C)C)nc2c1ccc(=O)n2-c1c(F)cccc1F` [Example 167] registered a melting point of 106 to 119 °C.

As for `Cc1cc(F)ccc1-c1nc(Nc2c[nH]c(=O)[nH]c2=O)nc2c1ccc(=O)n2-c1c(F)cccc1F` [Example 168, 8-(2,6-Difluorophenyl)-4-(4-fluoro-2-methylphenyl)-2-(N-aminouracil-5-yl)-8H-pyrido[2,3-d]pyrimidin-7-one], the melting point is > 300 °C.

`Cc1cc(F)ccc1-c1nc(NCCNS(C)(=O)=O)nc2c1ccc(=O)n2-c1c(F)cccc1F` [Example 189, N-[2-[[8-(2,6-Difluorophenyl)-4-(4-fluoro-2-methylphenyl)-7,8-d hydro-7-oxopyrido[2,3-d]pyrimidin-2-yl]amino]ethyl]methanesulfonamide]: the melting point is 105 to 115 °C (dec.).

For `COC(=O)CNc1nc(-c2ccc(F)cc2C)c2ccc(=O)n(-c3c(F)cccc3F)c2n1` [Example 190, Methyl N-[8-(2,6-difluorophenyl)-4-(4-fluoro-2-methylphenyl)-7,8-dihydro-7-oxopyrido[2,3-d]pyrimidin-2-yl] glycinate], the melting point lay within 212 to 213 °C.

The compound `Cc1cc(F)ccc1-c1nc(NCC(=O)O)nc2c1ccc(=O)n2-c1c(F)cccc1F` [Example 191, N-[8-(2,6-Difluorophenyl)-4-(4-fluoro-2-methylphenyl)-7,8-dihydro-7-oxopyrido[2,3-d]pyrimidin-2-yl]glycine] had a melting point of 260 to 261 °C.

As to `CCNC(=O)CNc1nc(-c2ccc(F)cc2C)c2ccc(=O)n(-c3c(F)cccc3F)c2n1` [Example 192], the melting point was 250 to 253 °C (dec.).
